How the values were obtained:
SERCA2a [1] = assay: A23187-induced SERCA2a degradation in HCSMCs; format: cell-based, human
Method: (§1) FIGS. 4a, 4b, 4c and 4d. (4a-4c) HCSMCs were pretreated with 3 μM ψPLB-SE and 15 μM MDL28170 for 1 hour, and then treated with 50 μM A23187 for 2 hours. (4a) Immunostaining was performed with antibodies against SERCA2a and SERCA2b (green). Nuclei were stained with Hoechst (blue). Representative merged images are shown. Scale bar, 50 μm. (4b) Western blot analysis was performed with cell extracts. Data are expressed as the means±SD (n=3-4; *, P<0.05). (4c) Baseline Ca^2+ concentration was measured by lonOptix calcium imaging system. (4d) RASMC were treated with ψPLB-SE or control peptide under the same conditions as described for FIG. 1B. The baseline Ca^2+ concentration was measured by lonOptix calcium imaging system (*, P<0.05).
The rat aortic smooth muscle cells (RASMCs) were isolated from the medial layer of the thoracic aorta derived from male Sprague-Dawley rats (body weight, 180-200 g) by an enzymatic reaction with collagenase (50 U/mL, Worthington) and pancreatic elastase (0.25 mg/mL, Sigma-Aldrich) for 4 hours at 37. The cells were collected and resuspended in DMEM containing 20% (v/v) fetal bovine serum. The resuspension was then plated on collagen I (Sigma-Aldrich)-coated glass coverslips and incubated at 37 in an atmosphere of 5% (v/v) CO2 and 95% (v/v) air. Human coronary smooth muscle cells (HCSMCs), pulmonary arterial endothelial cells (PAECs), and pulmonary arterial smooth muscle cells (PASMCs) were purchased from Lonza and cultured in EBM or SmBM (Lonza) supplemented with 0.5 mg/mL hEGF, […], 1 mg/mL hFGF, […] gentamicin/amphotericin-B, and 5% fetal bovine serum. All the cells were cultured at 37 in 5% (v/v) CO2 and 95% (v/v) air. RASMCs and HCSMCs were, respectively, plated at the densities of 1×10^4 cells/cm^2 and 1×10^5 cells/cm^2 for immunostaining and western blotting experiments. […]
Vascular smooth muscle cells (VSMCs) were homogenized in a minimal volume of 50 mM Tris-HCl, pH 7.4, supplemented with a broad-spectrum protease inhibitor cocktail (Calbiochem). […] The blots were scanned and quantified using LAS software.

cytosolic Ca^2+ level = assay: Intracellular Ca2+ measurement in HCSMCs; format: cell-based, human
Method: as §1
The intracellular Ca^2+ level was measured in VSMCs by loading cells with 0.5 μM Fura2-AM (Molecular Probes, Eugene Oreg., USA), a Ca^2+-sensitive indicator, for 15 minutes at 37. The fluorescence was recorded using the lonOptix calcium imaging system. VSMCs were stimulated by the exposure to light emitted by a 75 W halogen lamp through either a 340 nm or 380 nm filter. The fluorescent emissions were detected between 480 nm and 520 nm by a photomultiplier tube after an initial illumination at 340 nm for 0.5 second and then at 380 nm during recording. The 340 nm excitation scan was repeated at the end of the protocol, and qualitative changes in the intracellular Ca^2+ level were inferred from the ratio of the Fura2 fluorescent intensity at both wavelengths.

eNOS and Akt = eNOS and Akt phosphorylation in PAECs (western blotting); format: cell-based; conditions: 100 nM okadaic acid
Method: FIGS. 16a, 16b and 16c. (16a-16b) PAECs were treated with 3 μM ψPLB-SE for 1 hour, and protein expression was quantitatively analyzed through western blotting using antibodies against Phospho-eNOS (ser1177), total eNOS, phospho-Akt (Ser473, Thr308), total Akt, and GAPDH. (16c) The pulmonary tissue lysate was subjected to immunoprecipitation using PP1 antibody to investigate the interactions of PP1 with eNOS and Akt depending on the presence or absence of the treatment with ψPLB-SE using respective antibodies therefor.
FIGS. 17a, 17b and 17c. (17a) PAECs were treated with 50 μM LY294002, a PI3K inhibitor, for 24 hours, and then treated with 3 μM ψPLB-SE for 1 hour. Protein expression was quantitatively analyzed through western blotting using antibodies against Phospho-eNOS (ser1177), total eNOS, phospho-Akt (Ser473, Thr308), total Akt, and GAPDH. (17b) PAECs were treated with 10 μM inhibitor IV, an Akt inhibitor, for 2 hours, and then treated with 3 μM ψPLB-SE for 1 hour. Protein expression was quantitatively analyzed through western blotting using antibodies against total eNOS and GAPDH. (17c) PAECs were treated with 100 nM OA, a PP1 inhibitor, for 24 hours, and then treated with 3 μM ψPLB-SE for 1 hour. Protein expression was quantitatively analyzed through western blotting using antibodies against Phospho-eNOS (ser1177), total eNOS, phospho-Akt (Ser473, Thr308), total Akt, and GAPDH.
ψPLB-SE (RAE16TIEMPQ; SEQ ID NO: 2) was derived from the PLB protein sequence surrounding the Ser16 phosphorylation site. To facilitate uptake into cells, the peptide was conjugated to the cell penetrating peptide dNP2 ([…]; SEQ ID NO: 21) or TAT (YGRKKRRQRRR; SEQ ID NO: 22). The peptides used in the present invention were PLB-SE (RAETIEMPQ; SEQ ID NO: 2) and control peptide (RASTIEMPQ; SEQ ID NO: 23). PLB-SE and cell penetrating peptide were connected by a linker peptide (GGG; SEQ ID NO: 24) The peptides (purity of 95% or higher, AnyGen, Gwangju, Korea) was resuspended in double-distilled water or physiological saline at a stock concentration of 3 mM (cells), 2.5 mg/ml (rats), or 500 μg/ml (mice). The rats were treated with 1 mg/kg peptides and mice were treated with 2 mg/kg peptides. The rat aortic smooth muscle cells (RASMCs), human coronary smooth muscle cells (HCSMCs), pulmonary arterial endothelial cells (PAECs), and pulmonary arterial smooth muscle cells (PASMCs) were treated with the peptides at a final concentration of 3 μM for 1 hour. The PI3K inhibitor LY294002 (Millipore, USA), the Akt inhibitor Inhibitor IV (Calbiochem, USA), and the PP1 inhibitor okadaic acid (Sigma Aldrich, USA), used in the experiments using pulmonary arterial endothelial cells (PAECs), were purchased. For the monocrotaline aqueous solution, the monocrotaline powder (Sigma Aldrich, USA) was dissolved in a small amount of a 1 M hydrochloric acid solution (HCL), diluted with sterilized distilled water, and adjusted to pH 7.35 by addition of sodium hydroxide (NaOH). The animals were bred and observed in the same conditions as in the control group during the experiment periods. In addition, the calcium ionophore A23187 and the calpain I and II inhibitors MDL28170 and […] were purchased from Sigma-Aldrich (St. Louis, Mo., USA).
Vascular smooth muscle cells (VSMCs) were homogenized in a minimal volume of 50 mM Tris-HCl, pH 7.4, supplemented with a broad-spectrum protease inhibitor cocktail (Calbiochem). The proteins were separated by SDS-PAGE and then transferred to polyvinylidene fluoride membranes (Schleicher & Schuell). After blocking with 5% (w/v) non-fat milk for 1 hour and washing with TBST, the membranes were incubated with antibodies against SERCA2a, SERCA2b (21st century biochemical), PCNA (abcam), GAPDH (Sigma-Aldrich), phospho-eNOS, eNOS, phospho-eIF2α, eIF2α (cell signaling), Vimentin, α-SMA, BMPR2 (Santa cruz), phospho-Akt, Akt (cell signaling), phospho-phospholamban (Merck), and Phospholamban (cell signaling). […]

SERCA2a [2] = assay: SERCA2a level and stability in RASMCs (immunostaining, western blotting); format: cell-based, rat; conditions: synthetic conditions, calpain inhibitor
Method: (§2) Rat aortic smooth muscle cells (RASMCs) were fixed in 4% (w/v) paraformaldehyde at room temperature for 10 min, washed with PBS, and then transmitted with 0.1% (v/v) Triton X-100 in PBS for 40 min. After washing and blocking with 3% (w/v) BSA in PBS, the cells were incubated overnight at room temperature with antibodies against SERCA2a (1:250), SERCA2b (1:250), and PCNA (1:50). On the following day, the cells were washed with PBS and incubated with anti-rabbit and anti-mouse IgG conjugated to Alexa Fluor 488 and 594, respectively, for 1 hour at room temperature. The cells were treated with FluoroGuard antifade reagent (Bio-Rad, Hercules, Calif., USA), and the coverslips were examined under a fluorescent microscope.
Vascular smooth muscle cells (VSMCs) were homogenized in a minimal volume of 50 mM Tris-HCl, pH 7.4, supplemented with a broad-spectrum protease inhibitor cocktail (Calbiochem). The proteins were separated by SDS-PAGE and then transferred to polyvinylidene fluoride membranes (Schleicher & Schuell). After blocking with 5% (w/v) non-fat milk for 1 hour and washing with TBST, the membranes were incubated with antibodies against SERCA2a, SERCA2b (21st century biochemical), PCNA (abcam), GAPDH (Sigma-Aldrich), phospho-eNOS, eNOS, phospho-eIF2α, eIF2α (cell signaling), Vimentin, α-SMA, BMPR2 (Santa cruz), phospho-Akt, Akt (cell signaling), phospho-phospholamban (Merck), and Phospholamban (cell signaling). The membranes were then incubated with horseradish peroxidase-conjugated secondary antibodies (Jackson ImmunoResearch, West Grove, Pa., USA) and developed using a chemiluminescent substrate (Dogen). The blots were scanned and quantified using LAS software.
RASMCs were cultured in DMEM supplemented with 0.1% (v/v) FBS (Contractile) or in DMEM supplemented with 10% (v/v) FBS (Synthetic) in the presence of 3 μM control or ψPLB-SE peptide. Cycloheximide (Sigma) was added to media to a final concentration of 5 μg/ml. Cells were harvested after 0, 3, and 5 days of incubation and their protein extracts were subjected to western blotting.

[3] = tested on: rat aortic smooth muscle cells (RASMCs); assay: RASMC proliferation (PCNA immunostaining, EZ-CyTox cell viability assay); format: cell-based; conditions: RASMCs, synthetic conditions, calpain inhibitor
Method: The rat aortic smooth muscle cells (RASMCs) were isolated from the medial layer of the thoracic aorta derived from male Sprague-Dawley rats (body weight, 180-200 g) by an enzymatic reaction with collagenase (50 U/mL, Worthington) and pancreatic elastase (0.25 mg/mL, Sigma-Aldrich) for 4 hours at 37. The cells were collected and resuspended in DMEM containing 20% (v/v) fetal bovine serum. The resuspension was then plated on collagen I (Sigma-Aldrich)-coated glass coverslips and incubated at 37 in an atmosphere of 5% (v/v) CO2 and 95% (v/v) air. Human coronary smooth muscle cells (HCSMCs), pulmonary arterial endothelial cells (PAECs), and pulmonary arterial smooth muscle cells (PASMCs) were purchased from Lonza and cultured in EBM or SmBM (Lonza) supplemented with 0.5 mg/mL hEGF, […], 1 mg/mL hFGF, […] gentamicin/amphotericin-B, and 5% fetal bovine serum. All the cells were cultured at 37 in 5% (v/v) CO2 and 95% (v/v) air. RASMCs and HCSMCs were, respectively, plated at the densities of 1×10^4 cells/cm^2 and 1×10^5 cells/cm^2 for immunostaining and western blotting experiments. For RASMC and PASMC cell proliferation experiments, these cells were cultured in fetal bovine serum-free media for 3 days, and then proliferation was induced by serum addition.
as §2, with “microscope. […]” for “microscope.”

[4] = HCSMCs, 50 μM A23187 for 2 hours
[5] = HCSMCs pretreated 1 hour with 3 μM ψPLB-SE or 15 μM MDL28170, then 50 μM A23187 2 hours

Compound: CNc1ccc2oc(C[C@H]3O[C@@]4(CC[C@H]3C)O[C@H]([C@H](C)C(=O)c3ccc[nH]3)[C@H](C)C[C@H]4C)nc2c1C(=O)O [A23187]
- degradation of SERCA2a (SERCA2a [1]; [4]): evoked the degradation
- cytosolic Ca^2+ level (cytosolic Ca^2+ level; [4]): elevation

Compound: C=C1[C@@H](O)[C@@H]2O[C@]3(CC[C@H](/C=C/[C@@H](C)[C@@H]4CC(C)=C[C@@]5(O[C@H](C[C@@](C)(O)C(=O)O)CC[C@H]5O)O4)O3)CC[C@H]2O[C@@H]1[C@@H](O)C[C@H](C)[C@H]1O[C@@]2(CCCCO2)CC[C@H]1C [okadaic acid, reference compound]
- phosphorylation of Akt and eNOS (eNOS and Akt): increased

Compound: MDL28170 [reference compound]
- degradation of SERCA2a (immunostaining) (SERCA2a [2]): inhibited
- degradation of SERCA2a (western blotting) (SERCA2a [2]): protective effect
- PCNA level [3]: decreased
- A23187 (Ca^2+)-dependent degradation of SERCA2a (SERCA2a [1]; [5]): completely blocked
- elevation of the cytosolic Ca^2+ level by A23187 (cytosolic Ca^2+ level; [5]): not
